Article PMC6019134, “1,2,6-Thiadiazinones as Novel Narrow Spectrum Calcium/Calmodulin-Dependent Protein Kinase Kinase 2 (CaMKK2) Inhibitors” (Molecules : A Journal of Synthetic Chemistry and Natural …, 2018)

How the values were obtained:
Test in all cases: DSF thermal shift, kinase panel
Type in all cases: binding
Settings in all cases: 10 μM compound
AAK1 = molecular target: T1, AAK1 (Homo sapiens, UniProt Q2M2I8)
T1 construct: purchased in-house (home-made panel, SGC-style construct names)
Experimental: (§1) The corresponding dianilino-TDZs (1–5) were tested on a panel of 46 protein kinases representing the major kinome branches at a concentration of 10 μM using a Differential Scanning Fluorimetry (DSF). Only analogues 1–3 induced a significant (>2 °C) thermal shift when incubated with a subset of the proteins (Table 1).
(§2) Kinase selectivity assay—A home-made kinase panel was generated for the following enzymes: AAK1, BMP2K, BMX, BRAF, CAMK1D, CAMK1G, CAMKK1, CAMKK2B, CDC42BPA, CDK2, CDKL1, CHEK2, CLK1, CSNK1G1, CSNK1G3, CSNK2A1, DYRK1A, DYRK2A, EPHA2, GAK, GSG2, MAPK1, MAP2K7, MAPK14B, MAPK3, PHKG2, PIM1, PLK1, PKMYT1, PRPF4B, RPS6KA1A, RPS6KA5A, RPS6KA6A, SLK, SRPK1, SRPK2, STK3, STK6, STK10, STK17A, STK24, STK38L, TRIB2, TTK, VRK1 and VRK2. Proteins were produced in E. coli, purified in a Ni-chelate column, followed by overnight digestion using TEV protease (made in house with an N-terminal 6xHis tag) and dialysis to remove imidazole. To clear samples of uncleaved proteins and the TEV protease, samples were loaded on new Ni-chelate columns. The flow through was collected, concentrated and loaded to a HiLoad Superdex 200 16/600 column (GE Healthcare, Chicago, IL, USA) for final polishing and buffer exchange.
(§3) Starting from 100 µM protein stocks, our kinase panel enzymes were diluted to 1 µM in buffer 100 mM K2HPO4 pH 7.5 containing 150 mM NaCl, 10% glycerol and 5X dye (Applied Biosystems catalogue 4461806). The protein/dye mixture was transferred to a 384-well PCR microplate having 20 µL per well. Compounds in DMSO at 10 mM concentration were added in 20 nL volume, using a liquid handling device setup with a pin head, to make 10 µM compound concentration in the assay plate.
(§4) Protein thermal shift data was measured in a qPCR instrument (Applied Biosystems QuantStudio 6) programmed to equilibrate the plate at 25 °C for 5 min followed by ramping the temperature to 95 °C at a rate of 0.05 °C/s. Data was processed using Protein Thermal shift software (Applied Biosystems) by fitting experimental curves to a Boltzmann function to calculate differential thermal shifts (dTm) referenced to protein/dye in 0.2% DMSO.

RPS6KA5A = molecular target: T2, RPS6KA5A (Homo sapiens, UniProt O75582)
T2 construct: purchased in-house (home-made panel, SGC-style construct names)
Experimental: as §1, §2, §3, §4

DYRK2A = molecular target: T3, DYRK2A (Homo sapiens, UniProt Q92630)
T3 construct: purchased in-house (home-made panel, SGC-style construct names)
T3 sequence (Q92630 1-601): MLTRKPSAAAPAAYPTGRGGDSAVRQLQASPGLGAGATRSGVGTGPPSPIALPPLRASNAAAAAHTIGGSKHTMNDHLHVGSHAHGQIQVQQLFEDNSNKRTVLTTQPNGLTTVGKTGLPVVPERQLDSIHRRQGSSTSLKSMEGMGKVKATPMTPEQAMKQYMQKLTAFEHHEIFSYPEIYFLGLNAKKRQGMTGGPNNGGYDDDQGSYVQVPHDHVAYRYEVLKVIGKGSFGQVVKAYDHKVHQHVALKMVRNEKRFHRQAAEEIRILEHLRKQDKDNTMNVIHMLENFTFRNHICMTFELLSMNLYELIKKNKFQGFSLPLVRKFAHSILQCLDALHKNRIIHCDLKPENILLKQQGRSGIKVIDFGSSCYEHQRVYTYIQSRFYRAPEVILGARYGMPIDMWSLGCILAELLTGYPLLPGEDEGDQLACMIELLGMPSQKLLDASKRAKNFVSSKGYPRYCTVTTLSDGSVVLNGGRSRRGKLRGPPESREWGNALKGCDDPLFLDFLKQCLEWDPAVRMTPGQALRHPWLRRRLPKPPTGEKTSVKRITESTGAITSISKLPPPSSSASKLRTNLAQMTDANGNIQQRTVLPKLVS
Experimental: as §1, §2, §3, §4

DYRK1AA = molecular target: T4, DYRK1AA (Homo sapiens, UniProt Q13627)
T4 construct: purchased in-house (home-made panel, SGC-style construct names)
Experimental: as §1, §2, §3, §4

CDC42BPA = molecular target: T5, CDC42BPA (Homo sapiens, UniProt Q5VT25)
T5 construct: purchased in-house (home-made panel, SGC-style construct names)
Experimental: as §1, §2, §3, §4

MAPK1A = molecular target: T6, MAPK1A (Homo sapiens, UniProt P28482)
T6 construct: purchased in-house (home-made panel, SGC-style construct names)
Experimental: as §1, §2, §3, §4

MAPK3A = molecular target: T7, MAPK3A (Homo sapiens, UniProt P27361)
T7 construct: purchased in-house (home-made panel, SGC-style construct names)
Experimental: as §1, §2, §3, §4

TTKA = molecular target: T8, TTKA (Homo sapiens, UniProt P33981)
T8 construct: TEV-cleavable (cleaved yes); made in house; host or cells: E. coli
T8 sequence (P33981 1-857): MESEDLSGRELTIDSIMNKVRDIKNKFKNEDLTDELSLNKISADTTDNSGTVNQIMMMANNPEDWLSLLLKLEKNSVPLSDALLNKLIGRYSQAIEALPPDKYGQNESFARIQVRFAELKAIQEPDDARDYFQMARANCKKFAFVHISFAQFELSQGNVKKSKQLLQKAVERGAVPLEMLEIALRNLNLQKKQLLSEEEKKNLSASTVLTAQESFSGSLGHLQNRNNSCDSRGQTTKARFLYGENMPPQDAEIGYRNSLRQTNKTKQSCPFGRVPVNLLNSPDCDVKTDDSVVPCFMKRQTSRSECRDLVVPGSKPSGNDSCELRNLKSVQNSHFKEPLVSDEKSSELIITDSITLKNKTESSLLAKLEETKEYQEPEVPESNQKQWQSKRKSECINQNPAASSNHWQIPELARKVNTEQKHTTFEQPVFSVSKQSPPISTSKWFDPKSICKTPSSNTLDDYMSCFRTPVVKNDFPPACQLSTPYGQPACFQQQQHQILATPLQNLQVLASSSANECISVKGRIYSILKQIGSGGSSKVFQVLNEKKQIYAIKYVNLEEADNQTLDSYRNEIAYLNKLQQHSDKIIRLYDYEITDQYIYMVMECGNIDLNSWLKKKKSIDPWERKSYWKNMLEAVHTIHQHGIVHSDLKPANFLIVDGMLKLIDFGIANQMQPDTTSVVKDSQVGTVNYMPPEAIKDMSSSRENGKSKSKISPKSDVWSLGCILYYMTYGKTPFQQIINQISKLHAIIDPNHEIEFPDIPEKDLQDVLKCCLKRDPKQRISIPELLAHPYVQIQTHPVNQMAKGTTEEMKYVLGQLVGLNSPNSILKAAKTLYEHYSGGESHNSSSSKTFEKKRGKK
Experimental: as §1, §2, §3, §4

CAMKK1 = molecular target: T9, CAMKK1 (Homo sapiens, UniProt Q8N5S9)
T9 construct: purchased in-house (home-made panel, SGC-style construct names)
Experimental: as §1, §2, §3, §4

T7 sequence (P27361 whole entry): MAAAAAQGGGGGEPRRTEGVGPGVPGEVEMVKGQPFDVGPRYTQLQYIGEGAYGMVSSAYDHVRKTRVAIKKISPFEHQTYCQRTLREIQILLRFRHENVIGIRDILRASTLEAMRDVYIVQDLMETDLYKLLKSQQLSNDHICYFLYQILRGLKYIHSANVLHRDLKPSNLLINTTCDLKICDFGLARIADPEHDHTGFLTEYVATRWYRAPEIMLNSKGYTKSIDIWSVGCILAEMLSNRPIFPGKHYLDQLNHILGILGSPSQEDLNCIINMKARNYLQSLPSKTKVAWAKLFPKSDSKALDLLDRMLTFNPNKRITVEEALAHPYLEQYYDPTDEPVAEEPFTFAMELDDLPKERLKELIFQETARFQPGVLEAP
T1 sequence (Q2M2I8 whole entry): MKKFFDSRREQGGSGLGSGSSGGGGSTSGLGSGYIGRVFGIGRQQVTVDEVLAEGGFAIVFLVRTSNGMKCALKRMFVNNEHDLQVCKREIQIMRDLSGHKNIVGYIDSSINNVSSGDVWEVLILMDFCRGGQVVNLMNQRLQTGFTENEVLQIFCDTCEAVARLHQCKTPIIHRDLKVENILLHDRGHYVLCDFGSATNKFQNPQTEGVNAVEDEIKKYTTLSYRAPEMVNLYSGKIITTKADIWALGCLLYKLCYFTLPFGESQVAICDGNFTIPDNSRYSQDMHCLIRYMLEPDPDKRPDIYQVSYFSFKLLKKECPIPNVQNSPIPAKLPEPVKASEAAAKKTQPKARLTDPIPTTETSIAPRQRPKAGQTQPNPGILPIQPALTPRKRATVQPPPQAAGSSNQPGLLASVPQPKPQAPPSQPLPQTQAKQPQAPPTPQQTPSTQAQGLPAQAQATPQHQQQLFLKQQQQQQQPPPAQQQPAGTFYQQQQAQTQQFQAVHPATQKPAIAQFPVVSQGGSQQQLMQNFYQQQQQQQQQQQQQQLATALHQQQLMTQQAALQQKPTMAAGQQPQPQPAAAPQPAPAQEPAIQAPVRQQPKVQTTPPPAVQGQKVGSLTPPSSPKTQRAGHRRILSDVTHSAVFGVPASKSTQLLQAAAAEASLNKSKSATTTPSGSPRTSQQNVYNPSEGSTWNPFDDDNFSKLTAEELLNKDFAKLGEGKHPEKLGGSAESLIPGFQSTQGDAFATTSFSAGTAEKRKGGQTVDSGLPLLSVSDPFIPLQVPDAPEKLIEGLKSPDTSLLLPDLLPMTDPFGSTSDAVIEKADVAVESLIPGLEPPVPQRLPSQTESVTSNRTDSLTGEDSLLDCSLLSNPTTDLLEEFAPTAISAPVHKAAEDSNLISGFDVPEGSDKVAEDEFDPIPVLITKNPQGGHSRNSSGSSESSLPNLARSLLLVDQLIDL
T2 sequence (O75582 whole entry): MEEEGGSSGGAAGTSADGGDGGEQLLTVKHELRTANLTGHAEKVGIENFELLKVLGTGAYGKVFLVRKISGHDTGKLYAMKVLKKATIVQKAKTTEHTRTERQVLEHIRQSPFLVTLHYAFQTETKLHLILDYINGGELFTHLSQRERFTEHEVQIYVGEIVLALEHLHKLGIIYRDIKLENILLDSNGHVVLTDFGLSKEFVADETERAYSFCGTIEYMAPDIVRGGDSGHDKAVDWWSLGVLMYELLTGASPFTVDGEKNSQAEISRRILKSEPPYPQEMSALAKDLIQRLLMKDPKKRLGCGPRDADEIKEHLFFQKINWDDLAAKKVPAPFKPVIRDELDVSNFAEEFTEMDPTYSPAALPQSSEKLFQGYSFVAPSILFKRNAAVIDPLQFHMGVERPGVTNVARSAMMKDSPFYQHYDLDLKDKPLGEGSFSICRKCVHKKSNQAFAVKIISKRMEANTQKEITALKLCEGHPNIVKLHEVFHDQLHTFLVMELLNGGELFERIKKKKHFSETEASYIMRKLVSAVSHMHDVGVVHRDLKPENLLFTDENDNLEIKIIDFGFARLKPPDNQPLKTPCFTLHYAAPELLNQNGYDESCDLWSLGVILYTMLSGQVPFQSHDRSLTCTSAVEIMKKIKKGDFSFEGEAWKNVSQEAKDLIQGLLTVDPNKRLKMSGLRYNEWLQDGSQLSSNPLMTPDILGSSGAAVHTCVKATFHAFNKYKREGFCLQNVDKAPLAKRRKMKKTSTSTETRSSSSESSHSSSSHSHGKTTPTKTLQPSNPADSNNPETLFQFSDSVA
T9 sequence (Q8N5S9 whole entry): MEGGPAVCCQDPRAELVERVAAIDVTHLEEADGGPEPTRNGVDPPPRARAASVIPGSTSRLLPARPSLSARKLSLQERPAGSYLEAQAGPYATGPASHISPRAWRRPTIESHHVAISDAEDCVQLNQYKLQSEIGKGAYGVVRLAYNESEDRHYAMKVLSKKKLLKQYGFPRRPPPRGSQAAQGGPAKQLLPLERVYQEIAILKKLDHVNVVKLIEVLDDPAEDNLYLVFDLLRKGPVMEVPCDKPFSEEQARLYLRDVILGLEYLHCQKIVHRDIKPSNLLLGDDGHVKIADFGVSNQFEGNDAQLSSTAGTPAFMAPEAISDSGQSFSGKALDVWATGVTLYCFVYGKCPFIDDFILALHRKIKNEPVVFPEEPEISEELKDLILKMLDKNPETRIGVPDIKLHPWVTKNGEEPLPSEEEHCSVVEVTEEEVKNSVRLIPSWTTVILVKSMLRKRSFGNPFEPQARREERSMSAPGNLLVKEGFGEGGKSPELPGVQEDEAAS
T5 sequence (Q5VT25 whole entry): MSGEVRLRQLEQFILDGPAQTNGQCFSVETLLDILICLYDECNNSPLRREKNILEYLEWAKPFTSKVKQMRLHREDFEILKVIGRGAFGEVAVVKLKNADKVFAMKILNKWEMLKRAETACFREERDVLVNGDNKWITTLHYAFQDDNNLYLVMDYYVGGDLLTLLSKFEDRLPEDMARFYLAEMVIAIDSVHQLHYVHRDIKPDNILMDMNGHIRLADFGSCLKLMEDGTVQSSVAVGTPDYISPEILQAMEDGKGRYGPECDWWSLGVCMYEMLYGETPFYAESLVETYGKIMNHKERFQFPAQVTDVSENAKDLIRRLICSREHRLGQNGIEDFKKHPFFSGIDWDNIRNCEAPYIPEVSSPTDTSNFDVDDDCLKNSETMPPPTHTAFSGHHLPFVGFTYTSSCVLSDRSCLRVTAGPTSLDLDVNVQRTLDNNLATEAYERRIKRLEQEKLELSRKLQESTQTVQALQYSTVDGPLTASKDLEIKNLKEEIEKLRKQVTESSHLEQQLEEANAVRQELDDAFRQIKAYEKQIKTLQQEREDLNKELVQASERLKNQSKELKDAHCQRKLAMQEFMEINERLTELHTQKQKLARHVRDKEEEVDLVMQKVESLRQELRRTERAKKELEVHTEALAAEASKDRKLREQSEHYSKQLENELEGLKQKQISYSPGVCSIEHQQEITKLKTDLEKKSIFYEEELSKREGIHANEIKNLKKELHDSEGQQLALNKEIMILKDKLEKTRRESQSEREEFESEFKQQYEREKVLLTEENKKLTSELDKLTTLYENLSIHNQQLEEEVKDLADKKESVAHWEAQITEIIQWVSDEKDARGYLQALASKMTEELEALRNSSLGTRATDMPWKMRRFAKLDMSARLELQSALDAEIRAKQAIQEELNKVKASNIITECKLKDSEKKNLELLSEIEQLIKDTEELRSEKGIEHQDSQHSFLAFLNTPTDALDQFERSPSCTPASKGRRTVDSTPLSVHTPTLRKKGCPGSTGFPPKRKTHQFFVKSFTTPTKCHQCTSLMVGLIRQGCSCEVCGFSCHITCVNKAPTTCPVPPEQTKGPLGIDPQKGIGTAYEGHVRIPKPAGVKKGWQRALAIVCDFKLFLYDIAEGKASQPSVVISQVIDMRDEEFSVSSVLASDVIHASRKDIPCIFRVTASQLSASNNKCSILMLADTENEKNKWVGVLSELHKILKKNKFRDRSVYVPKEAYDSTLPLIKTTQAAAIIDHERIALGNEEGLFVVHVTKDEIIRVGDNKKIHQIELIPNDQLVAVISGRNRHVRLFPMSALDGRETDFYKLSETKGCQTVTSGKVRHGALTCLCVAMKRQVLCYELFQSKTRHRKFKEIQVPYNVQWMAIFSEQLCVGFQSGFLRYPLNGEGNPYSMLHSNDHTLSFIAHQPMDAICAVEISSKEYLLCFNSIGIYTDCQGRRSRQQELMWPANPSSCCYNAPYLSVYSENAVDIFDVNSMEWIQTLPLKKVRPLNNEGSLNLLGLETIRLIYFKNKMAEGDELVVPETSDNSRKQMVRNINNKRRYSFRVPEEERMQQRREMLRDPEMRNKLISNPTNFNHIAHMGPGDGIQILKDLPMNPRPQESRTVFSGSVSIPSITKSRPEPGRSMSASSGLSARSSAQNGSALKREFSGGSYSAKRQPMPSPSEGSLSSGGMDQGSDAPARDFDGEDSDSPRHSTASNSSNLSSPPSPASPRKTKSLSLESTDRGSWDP
T6 sequence (P28482 whole entry): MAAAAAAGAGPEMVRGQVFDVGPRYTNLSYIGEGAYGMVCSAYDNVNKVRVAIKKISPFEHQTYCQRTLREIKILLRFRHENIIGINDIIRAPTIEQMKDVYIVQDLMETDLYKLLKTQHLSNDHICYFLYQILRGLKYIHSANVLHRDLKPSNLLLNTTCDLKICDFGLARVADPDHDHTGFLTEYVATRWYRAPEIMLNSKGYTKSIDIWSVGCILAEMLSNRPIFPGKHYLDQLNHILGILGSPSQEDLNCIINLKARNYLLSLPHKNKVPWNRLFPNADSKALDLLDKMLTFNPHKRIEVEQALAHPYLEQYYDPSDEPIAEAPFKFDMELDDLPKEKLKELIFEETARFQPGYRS

SMILES	ΔTm at 10 µM (AAK1) [°C]	ΔTm at 10 µM (RPS6KA5A) [°C]	ΔTm at 10 µM (DYRK2A) [°C]	ΔTm at 10 µM (DYRK1AA) [°C]	ΔTm at 10 µM (CDC42BPA) [°C]	ΔTm at 10 µM (MAPK1A) [°C]	ΔTm at 10 µM (MAPK3A) [°C]	ΔTm at 10 µM (TTKA) [°C]	ΔTm at 10 µM (CAMKK1) [°C]
Cc1ccc(Nc2nsnc(Nc3cccc(C(N)=O)c3)c2=O)cc1O [Compound 1, 3-({5-[(3-Hydroxy-4-methylphenyl)amino]-4-oxo-4H-1,2,6-thiadiazin-3-yl}amino)benzamide]	0.6	-0.9	0.1	-0.6	0.3	-0.2	0.1	0.8	0
Cc1ccc(Nc2nsnc(Nc3ccc(C(N)=O)cc3)c2=O)cc1O [Compound 2, 4-({5-[(3-Hydroxy-4-methylphenyl)amino]-4-oxo-4H-1,2,6-thiadiazin-3-yl}amino)benzamide]	1.5	1.7	2.4	0.9	4.8	1.4	1.2	2.6	3.7
Cc1ccc(Nc2nsnc(Nc3ccc4c(c3)CS(=O)(=O)C4)c2=O)cc1O [Compound 3, 3-[(2,2-Dioxido-1,3-dihydrobenzo[c]thiophen-5-yl)amino]-5-[(3-hydroxy-4-methylphenyl)amino]-4H-1,2,6-thiadiazin-4-one]	0.6	-0.3	0.7	-0.1	2.3	0.1	0.4	2.1	1.4
CNC(=O)c1ccccc1Nc1nsnc(Nc2cccc(CS(C)(=O)=O)c2)c1=O [Compound 4, N-Methyl-2-([5-({3-[(methylsulfonyl)methyl]phenyl}amino)-4-oxo-4H-1,2,6-thiadiazin-3-yl]-amino}-benzamide]	-0.4	-1.2	0.1	-0.5	-0.8	-0.3	0.1	0.3	-0.4
CNC(=O)c1ccccc1Nc1nsnc(Nc2ccc(N3CCOCC3)cc2)c1=O [Compound 5, N-Methyl-2-({5-[(4-morpholinophenyl)amino]-4-oxo-4H-1,2,6-thiadiazin-3-yl}amino)benzamide]	-0.4	-1.1	0.1	-0.8	-0.6	-0.3	0.1	0.1	-0.4
